# Experimental data from paper PMC3372086 (Journal of Medicinal Chemistry, 2012).
# Counter-ions that a name gives are not always drawn.
# Experiments:
# TZM-bl cells = test: Cytotoxicity in TZM-bl cells; assay type: cell-based; details: at the dose given as CC50 bound
# [1] = tested on: several laboratory strains and primary isolates; details: cited from earlier work
# MT-2 cells = test: Cytotoxicity in MT-2 cells; assay type: cell-based, Human; details: for % toxicity at that dose (number in parenthesis), MT-2 cells: at the dose given as CC50 bound
smiles,measurement,setting,value
"Cc1nc(C(NC(=O)C(=O)Nc2ccc(F)c(F)c2)C2CCCCN2)sc1CO (stereo not drawn) [compound 22, N^1-(3,4-difluorophenyl)-N^2-((5-(hydroxymethyl)-4-methylthiazol-2-yl)(piperidin-2-yl)methyl)oxalamide.HCl]","% toxicity at that dose (number in parenthesis), TZM-bl cells",TZM-bl cells,0%
CC1(C)CC(NC(=O)C(=O)Nc2ccc(Cl)cc2)CC(C)(C)N1 [compound 1],potency against several laboratory strains and primary isolates,[1],low micromolar potency
"Cc1nc(C(NC(=O)C(=O)Nc2ccc(F)c(Cl)c2)C2CCCCN2)sc1CO (stereo not drawn) [compound 24, N^1-(3-chloro-4-fluorophenyl)-N^2-((5-(hydroxymethyl)-4-methylthiazol-2-yl)(piperidin-2-yl)methyl)oxalamide.2HCl]","% toxicity at that dose (number in parenthesis), TZM-bl cells",TZM-bl cells,0%
"Cc1nc(C(NC(=O)C(=O)Nc2ccc(Cl)cc2)C2CCCCN2)sc1CCO (stereo not drawn) [compound 9, N^1-(4-chlorophenyl)-N^2-((5-(2-hydroxyethyl)-4-methylthiazol-2-yl)(piperidin-2-yl)methyl)oxalamide.HCOOH]","% toxicity at that dose (number in parenthesis), MT-2 cells",MT-2 cells,0%
"Cc1ccc(NC(=O)C(=O)NC(c2nc(C)c(CO)s2)C2CCCCN2)cc1F (stereo not drawn) [compound 28, N^1-(3-fluoro-4-methylphenyl)-N^2-((5-(hydroxymethyl)-4-methylthiazol-2-yl)(piperidin-2-yl)methyl)oxalamide.HCl]","% toxicity at that dose (number in parenthesis), TZM-bl cells",TZM-bl cells,0%
"Cc1nc(C(NC(=O)C(=O)Nc2ccc(Cl)cc2)C2CCCCN2)sc1CCO.O=CO (stereo not drawn) [compound 30, N^1-(4-chlorophenyl)-N^2-((5-(2-hydroxyethyl)-4-methylthiazol-2-yl)(piperidin-2-yl)methyl)oxalamide.HCOOH]","% toxicity at that dose (number in parenthesis), MT-2 cells",MT-2 cells,0%
same,CC50,"MT-2 cells; read-out: MT-2 Cells CC50 (μM ± SD), MT-2 cells, XTT, 4 days",> 62 µM
"Cc1nc(C(NC(=O)C(=O)Nc2ccc(F)cc2)C2CCCCN2)sc1CO (stereo not drawn) [compound 25, N^1-(4-fluorophenyl)-N^2-((5-(hydroxymethyl)-4-methylthiazol-2-yl)(piperidin-2-yl)methyl)oxalamide.HCl]","% toxicity at that dose (number in parenthesis), TZM-bl cells",TZM-bl cells,0%
CC1(C)CC(NC(=O)C(=O)Nc2ccc(Br)cc2)CC(C)(C)N1 [compound 2],potency against several laboratory strains and primary isolates,[1],low micromolar potency
